From the kinase profiling compilation of Christmann-Franck et al. (2016)

Key:
Assay in all cases: radiometric filter-binding kinase assay
[1] = test system: PAK2 (human), Q13177 [T402E]
[2] = target: CAMKK2 (human) (UniProt Q96RR4)
[3] = target: DYRK1A (human) (UniProt Q13627)
[4] = target: IGF1R (human) (UniProt P08069)
[5] = test system: LCK (mouse); details: accession and sequence are those of the human protein
[6] = target: EPHB2 (human) (UniProt P29323)
[7] = target: PIM3 (human) (UniProt Q86V86)
[8] = test system: SGK1 (human), O00141 [S422D]
[9] = target: MARK3 (human) (UniProt P27448)
[10] = target: PHKG1 (human) (UniProt Q16816)
[11] = target: SRPK1 (human) (UniProt Q96SB4)
[12] = target: MAPK11 (human) (UniProt Q15759)
[13] = target: TBK1 (human) (UniProt Q9UHD2)
[14] = target: CaMK1 (human) (UniProt Q14012)
[15] = target: TAOK1 (human) (UniProt Q7L7X3)
[16] = target: JAK2 JH1 JH2 (human) (UniProt O60674)
[17] = test system: ROCK2 (rat); details: accession and sequence are those of the human protein
[18] = target: GCK (human) (UniProt Q12851)
[19] = target: MKNK1 (human) (UniProt Q9BUB5)
[20] = target: CHEK1 (human) (UniProt O14757)
[21] = target: BRSK2 (human) (UniProt Q8IWQ3)
[22] = target: YES1 (human) (UniProt P07947)
[23] = target: HIPK1 (human) (UniProt Q86Z02)
[24] = target: CLK2 (human) (UniProt P49760)
[25] = target: MAPK13 (human) (UniProt O15264)
[26] = target: CSNK2A1 (human) (UniProt P68400)
[27] = target: STK3 (human) (UniProt Q13188)
[28] = target: AURKB (human) (UniProt Q96GD4)
[29] = target: MAPKAPK5 (human) (UniProt Q8IW41)
[30] = target: DYRK3 (human) (UniProt O43781)
[31] = target: DAPK1 (human) (UniProt P53355)
[32] = target: MAPK10 (human) (UniProt P53779)
[33] = target: FGFR1 (human) (UniProt P11362)
[34] = target: HIPK2 (human) (UniProt Q9H2X6)
[35] = target: MINK1 (human) (UniProt Q8N4C8)
[36] = target: MAPK8 (human) (UniProt P45983)

Chain of MARK3 (human) (P27448 whole entry, looked up): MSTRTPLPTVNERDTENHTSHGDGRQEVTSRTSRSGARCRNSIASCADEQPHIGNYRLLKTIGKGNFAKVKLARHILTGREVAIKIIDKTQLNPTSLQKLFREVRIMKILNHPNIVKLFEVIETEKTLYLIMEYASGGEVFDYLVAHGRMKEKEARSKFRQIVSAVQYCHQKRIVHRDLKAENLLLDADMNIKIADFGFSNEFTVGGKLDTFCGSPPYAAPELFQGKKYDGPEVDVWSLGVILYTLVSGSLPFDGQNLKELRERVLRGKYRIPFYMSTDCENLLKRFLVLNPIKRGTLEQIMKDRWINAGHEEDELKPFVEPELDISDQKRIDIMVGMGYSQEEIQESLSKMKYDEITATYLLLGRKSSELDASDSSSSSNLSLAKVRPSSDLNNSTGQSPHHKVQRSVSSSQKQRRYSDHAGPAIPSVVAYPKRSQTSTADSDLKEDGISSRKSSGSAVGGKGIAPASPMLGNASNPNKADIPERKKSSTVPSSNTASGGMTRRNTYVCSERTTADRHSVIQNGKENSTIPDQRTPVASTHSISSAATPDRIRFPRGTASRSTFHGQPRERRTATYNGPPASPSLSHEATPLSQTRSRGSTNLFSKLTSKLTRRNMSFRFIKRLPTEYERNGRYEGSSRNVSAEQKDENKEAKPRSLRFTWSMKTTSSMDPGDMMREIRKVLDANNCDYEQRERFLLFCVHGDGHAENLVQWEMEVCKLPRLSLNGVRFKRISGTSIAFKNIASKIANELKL
Chain of CAMKK2 (human) (Q96RR4 whole entry, looked up): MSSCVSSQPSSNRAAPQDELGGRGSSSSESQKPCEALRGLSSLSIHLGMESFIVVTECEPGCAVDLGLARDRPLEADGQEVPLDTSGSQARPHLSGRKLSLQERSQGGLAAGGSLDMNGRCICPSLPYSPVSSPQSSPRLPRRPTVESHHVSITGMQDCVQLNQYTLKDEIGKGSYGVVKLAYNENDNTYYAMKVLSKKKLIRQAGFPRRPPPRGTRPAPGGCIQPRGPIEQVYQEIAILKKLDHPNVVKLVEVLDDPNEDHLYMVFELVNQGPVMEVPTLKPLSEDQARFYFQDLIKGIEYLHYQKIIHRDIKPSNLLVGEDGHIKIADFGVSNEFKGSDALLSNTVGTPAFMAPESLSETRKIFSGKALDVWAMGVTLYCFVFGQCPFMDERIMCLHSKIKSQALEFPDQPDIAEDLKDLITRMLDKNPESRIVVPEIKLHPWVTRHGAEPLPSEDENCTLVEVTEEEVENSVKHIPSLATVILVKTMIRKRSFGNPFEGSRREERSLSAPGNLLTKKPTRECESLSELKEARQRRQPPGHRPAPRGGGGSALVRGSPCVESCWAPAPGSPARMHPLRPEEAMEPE
Chain of CHEK1 (human) (O14757 whole entry, looked up): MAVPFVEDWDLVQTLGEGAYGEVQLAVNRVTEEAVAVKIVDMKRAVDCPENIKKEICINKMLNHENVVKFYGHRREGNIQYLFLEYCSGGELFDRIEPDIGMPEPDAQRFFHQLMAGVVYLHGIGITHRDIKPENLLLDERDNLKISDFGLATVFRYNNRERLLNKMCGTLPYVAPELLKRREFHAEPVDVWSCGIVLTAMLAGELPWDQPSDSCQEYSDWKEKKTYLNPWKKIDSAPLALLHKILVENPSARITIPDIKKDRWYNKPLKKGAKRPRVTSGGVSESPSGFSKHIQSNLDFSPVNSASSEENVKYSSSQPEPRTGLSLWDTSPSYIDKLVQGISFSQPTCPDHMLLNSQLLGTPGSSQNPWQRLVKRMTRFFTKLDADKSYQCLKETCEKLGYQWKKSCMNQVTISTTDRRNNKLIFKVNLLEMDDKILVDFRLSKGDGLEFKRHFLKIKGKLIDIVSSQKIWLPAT
Chain of BRSK2 (human) (Q8IWQ3 whole entry, looked up): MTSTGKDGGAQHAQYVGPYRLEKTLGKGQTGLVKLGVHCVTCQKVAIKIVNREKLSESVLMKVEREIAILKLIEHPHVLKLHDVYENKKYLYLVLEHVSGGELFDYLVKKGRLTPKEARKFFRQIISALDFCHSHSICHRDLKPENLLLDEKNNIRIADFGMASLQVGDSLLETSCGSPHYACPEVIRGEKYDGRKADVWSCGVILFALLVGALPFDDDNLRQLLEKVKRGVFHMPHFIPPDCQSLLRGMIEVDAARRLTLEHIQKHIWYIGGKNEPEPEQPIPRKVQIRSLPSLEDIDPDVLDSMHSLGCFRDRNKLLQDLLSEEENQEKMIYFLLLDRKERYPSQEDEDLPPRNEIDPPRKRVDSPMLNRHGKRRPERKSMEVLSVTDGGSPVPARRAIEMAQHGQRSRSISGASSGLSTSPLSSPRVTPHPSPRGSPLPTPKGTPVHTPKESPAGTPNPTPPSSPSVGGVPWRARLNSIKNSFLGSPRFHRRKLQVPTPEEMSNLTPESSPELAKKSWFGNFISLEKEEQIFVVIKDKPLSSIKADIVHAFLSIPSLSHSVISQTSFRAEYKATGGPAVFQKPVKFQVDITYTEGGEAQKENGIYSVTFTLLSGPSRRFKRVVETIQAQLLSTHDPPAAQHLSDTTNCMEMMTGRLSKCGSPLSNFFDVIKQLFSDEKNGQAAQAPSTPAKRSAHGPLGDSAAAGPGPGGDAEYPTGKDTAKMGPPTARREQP
Chain of MAPKAPK5 (human) (Q8IW41 whole entry, looked up): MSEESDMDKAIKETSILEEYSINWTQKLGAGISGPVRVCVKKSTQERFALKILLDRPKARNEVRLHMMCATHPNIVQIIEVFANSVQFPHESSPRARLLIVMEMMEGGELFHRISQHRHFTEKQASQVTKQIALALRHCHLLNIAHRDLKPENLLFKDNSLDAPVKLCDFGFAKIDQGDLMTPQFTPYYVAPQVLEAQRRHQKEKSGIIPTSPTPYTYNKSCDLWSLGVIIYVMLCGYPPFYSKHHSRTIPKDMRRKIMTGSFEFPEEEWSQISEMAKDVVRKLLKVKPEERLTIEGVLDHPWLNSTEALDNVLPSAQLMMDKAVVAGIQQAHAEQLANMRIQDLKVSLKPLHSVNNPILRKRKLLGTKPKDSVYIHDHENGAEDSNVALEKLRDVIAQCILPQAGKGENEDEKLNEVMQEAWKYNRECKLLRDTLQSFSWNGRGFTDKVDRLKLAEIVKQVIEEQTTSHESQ
Chain of IGF1R (human) (P08069 whole entry, looked up): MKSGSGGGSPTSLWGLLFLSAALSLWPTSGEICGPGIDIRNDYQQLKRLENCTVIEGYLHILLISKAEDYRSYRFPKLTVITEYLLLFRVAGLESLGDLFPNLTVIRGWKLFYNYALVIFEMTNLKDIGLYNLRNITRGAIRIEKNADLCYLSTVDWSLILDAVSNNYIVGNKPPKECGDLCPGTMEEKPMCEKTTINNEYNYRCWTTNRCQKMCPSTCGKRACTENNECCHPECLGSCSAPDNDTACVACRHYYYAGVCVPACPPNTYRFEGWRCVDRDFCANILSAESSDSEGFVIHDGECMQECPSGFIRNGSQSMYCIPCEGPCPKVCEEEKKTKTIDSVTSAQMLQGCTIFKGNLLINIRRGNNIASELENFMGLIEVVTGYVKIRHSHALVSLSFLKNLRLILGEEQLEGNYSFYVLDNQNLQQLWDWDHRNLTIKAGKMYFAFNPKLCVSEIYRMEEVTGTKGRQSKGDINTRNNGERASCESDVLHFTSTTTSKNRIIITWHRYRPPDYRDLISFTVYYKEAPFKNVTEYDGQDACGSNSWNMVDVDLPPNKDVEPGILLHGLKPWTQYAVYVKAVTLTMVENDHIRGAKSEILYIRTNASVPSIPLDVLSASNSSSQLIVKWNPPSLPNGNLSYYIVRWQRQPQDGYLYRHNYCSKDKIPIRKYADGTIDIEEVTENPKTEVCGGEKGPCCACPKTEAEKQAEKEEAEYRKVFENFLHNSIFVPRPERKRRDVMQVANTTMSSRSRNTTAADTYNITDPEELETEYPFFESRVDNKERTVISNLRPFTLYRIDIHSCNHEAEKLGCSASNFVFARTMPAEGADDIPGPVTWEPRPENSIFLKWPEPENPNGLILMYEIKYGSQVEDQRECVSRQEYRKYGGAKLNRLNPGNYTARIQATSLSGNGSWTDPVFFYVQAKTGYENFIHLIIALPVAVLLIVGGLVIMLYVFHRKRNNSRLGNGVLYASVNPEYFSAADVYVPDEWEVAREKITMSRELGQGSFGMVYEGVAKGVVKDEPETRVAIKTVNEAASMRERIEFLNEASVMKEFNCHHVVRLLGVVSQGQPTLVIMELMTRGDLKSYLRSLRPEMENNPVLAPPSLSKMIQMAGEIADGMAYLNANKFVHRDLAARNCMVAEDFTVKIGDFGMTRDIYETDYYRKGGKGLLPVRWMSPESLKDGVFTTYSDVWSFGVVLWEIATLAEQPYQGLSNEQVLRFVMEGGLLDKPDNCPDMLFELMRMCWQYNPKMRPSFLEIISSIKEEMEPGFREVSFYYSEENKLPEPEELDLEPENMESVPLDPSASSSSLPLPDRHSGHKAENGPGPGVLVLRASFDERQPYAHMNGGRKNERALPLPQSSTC
Chain of PHKG1 (human) (Q16816 whole entry, looked up): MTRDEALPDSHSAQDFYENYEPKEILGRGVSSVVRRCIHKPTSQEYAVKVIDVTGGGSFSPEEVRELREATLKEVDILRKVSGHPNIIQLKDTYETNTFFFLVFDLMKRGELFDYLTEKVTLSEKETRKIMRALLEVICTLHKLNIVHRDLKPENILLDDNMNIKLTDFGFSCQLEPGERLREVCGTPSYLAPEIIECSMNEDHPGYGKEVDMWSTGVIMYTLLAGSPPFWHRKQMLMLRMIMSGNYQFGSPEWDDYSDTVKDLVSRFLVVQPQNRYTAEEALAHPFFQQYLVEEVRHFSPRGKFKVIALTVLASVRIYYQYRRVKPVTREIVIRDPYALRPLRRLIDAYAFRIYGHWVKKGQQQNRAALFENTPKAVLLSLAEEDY

A residual activity ([1]; compound 0.1 µM) of 44%, a residual activity ([1]; compound 1.0 µM) of 44% and a residual activity ([1]; compound 10.0 µM) of 16% were found for `Cc1ccc(Sc2cnc(Nc3cccc(Br)n3)s2)cc1C(=O)N1CCN(C(=O)CN)CC1` in this work. It also gave a residual activity ([2]; compound 0.1 µM) of 22%, a residual activity ([2]; compound 1.0 µM) of 19% and a residual activity ([2]; compound 10.0 µM) of 19%. The residual activity ([3]; compound 0.1 µM) was 103%, the residual activity ([3]; compound 1.0 µM) was 101% and the residual activity ([3]; compound 10.0 µM) was 61%. For the same compound, the residual activity ([4]; compound 0.1 µM) was 2%, the residual activity ([4]; compound 1.0 µM) was 2% and the residual activity ([4]; compound 10.0 µM) was 2%. The residual activity ([5]; compound 0.1 µM) was 43%, the residual activity ([5]; compound 1.0 µM) was 13% and the residual activity ([5]; compound 10.0 µM) was 5%. For the same compound, the residual activity ([6]; compound 0.1 µM) was 11%, the residual activity ([6]; compound 1.0 µM) was 4% and the residual activity ([6]; compound 10.0 µM) was 4%. It also gave a residual activity ([7]; compound 0.1 µM) of 53%, a residual activity ([7]; compound 1.0 µM) of 72% and a residual activity ([7]; compound 10.0 µM) of 21%. For the same compound, the residual activity ([8]; compound 0.1 µM) was 89%, the residual activity ([8]; compound 1.0 µM) was 90% and the residual activity ([8]; compound 10.0 µM) was 41%. It also gave a residual activity ([9]; compound 0.1 µM) of 103%, a residual activity ([9]; compound 1.0 µM) of 89% and a residual activity ([9]; compound 10.0 µM) of 57%. It also gave a residual activity ([10]; compound 0.1 µM) of 43%, a residual activity ([10]; compound 1.0 µM) of 15% and a residual activity ([10]; compound 10.0 µM) of 2%. The residual activity ([11]; compound 0.1 µM) was 71%, the residual activity ([11]; compound 1.0 µM) was 59% and the residual activity ([11]; compound 10.0 µM) was 11%. The residual activity ([12]; compound 0.1 µM) was 87%, the residual activity ([12]; compound 1.0 µM) was 76% and the residual activity ([12]; compound 10.0 µM) was 48%. The residual activity ([13]; compound 0.1 µM) was 87%, the residual activity ([13]; compound 1.0 µM) was 78% and the residual activity ([13]; compound 10.0 µM) was 93%. For the same compound, the residual activity ([14]; compound 0.1 µM) was 62%, the residual activity ([14]; compound 1.0 µM) was 59% and the residual activity ([14]; compound 10.0 µM) was 11%. The residual activity ([15]; compound 0.1 µM) was 42%, the residual activity ([15]; compound 1.0 µM) was 33% and the residual activity ([16]; compound 0.1 µM) was 84%. The residual activity ([16]; compound 1.0 µM) was 80%, the residual activity ([16]; compound 10.0 µM) was 30% and the residual activity ([17]; compound 0.1 µM) was 90%. The residual activity ([17]; compound 1.0 µM) was 82%, the residual activity ([17]; compound 10.0 µM) was 63% and the residual activity ([18]; compound 0.1 µM) was 101%. It also gave a residual activity ([18]; compound 1.0 µM) of 93%, a residual activity ([18]; compound 10.0 µM) of 33% and a residual activity ([19]; compound 0.1 µM) of 97%. It also gave a residual activity ([19]; compound 1.0 µM) of 103%, a residual activity ([19]; compound 10.0 µM) of 77% and a residual activity ([20]; compound 0.1 µM) of 54%. The residual activity ([20]; compound 1.0 µM) was 53%, the residual activity ([20]; compound 10.0 µM) was 52% and the residual activity ([21]; compound 0.1 µM) was 88%. For the same compound, the residual activity ([21]; compound 1.0 µM) was 80%, the residual activity ([21]; compound 10.0 µM) was 40% and the residual activity ([22]; compound 0.1 µM) was 11%. The residual activity ([22]; compound 1.0 µM) was 11%, the residual activity ([22]; compound 10.0 µM) was 6% and the residual activity ([23]; compound 0.1 µM) was 45%. For the same compound, the residual activity ([23]; compound 1.0 µM) was 42%, the residual activity ([23]; compound 10.0 µM) was 5% and the residual activity ([24]; compound 0.1 µM) was 3%. For the same compound, the residual activity ([24]; compound 1.0 µM) was 3%, the residual activity ([24]; compound 10.0 µM) was 1% and the residual activity ([25]; compound 0.1 µM) was 97%. It also gave a residual activity ([25]; compound 1.0 µM) of 24%, a residual activity ([25]; compound 10.0 µM) of 5% and a residual activity ([26]; compound 0.1 µM) of 119%. The residual activity ([26]; compound 1.0 µM) was 104%, the residual activity ([26]; compound 10.0 µM) was 85% and the residual activity ([27]; compound 0.1 µM) was 16%. The residual activity ([27]; compound 1.0 µM) was 19%, the residual activity ([27]; compound 10.0 µM) was 3% and the residual activity ([28]; compound 0.1 µM) was 65%. The residual activity ([28]; compound 1.0 µM) was 42%, the residual activity ([28]; compound 10.0 µM) was 7% and the residual activity ([29]; compound 0.1 µM) was 96%. The residual activity ([29]; compound 1.0 µM) was 94%, the residual activity ([29]; compound 10.0 µM) was 96% and the residual activity ([30]; compound 0.1 µM) was 89%. The residual activity ([30]; compound 1.0 µM) was 78%, the residual activity ([30]; compound 10.0 µM) was 43% and the residual activity ([31]; compound 0.1 µM) was 99%. It also gave a residual activity ([31]; compound 1.0 µM) of 96%, a residual activity ([31]; compound 10.0 µM) of 63% and a residual activity ([32]; compound 0.1 µM) of 94%. It also gave a residual activity ([32]; compound 1.0 µM) of 107%, a residual activity ([32]; compound 10.0 µM) of 54% and a residual activity ([33]; compound 0.1 µM) of 47%. The residual activity ([33]; compound 1.0 µM) was 43%, the residual activity ([33]; compound 10.0 µM) was 11% and the residual activity ([34]; compound 0.1 µM) was 14%. The residual activity ([34]; compound 1.0 µM) was 13%, the residual activity ([34]; compound 10.0 µM) was 5% and the residual activity ([35]; compound 0.1 µM) was 69%. The residual activity ([35]; compound 1.0 µM) was 64%, the residual activity ([35]; compound 10.0 µM) was 8% and the residual activity ([36]; compound 0.1 µM) was 98%. For the same compound, the residual activity ([36]; compound 1.0 µM) was 99% and the residual activity ([36]; compound 10.0 µM) was 53%.
